What is called inhibition is the drop in the measured response relative to a control, in per cent. A higher inhibition goes with a response far below the control.

For data set [1], the system named is HCV (JFH-1) infection of naïve Huh7.5.1 cells. As to the kind of experiment: HCV infectivity of cell culture supernatant on naïve Huh7.5.1 cells. The format is cell-based, Hepatitis C virus. As to conditions: Hepatitis C virus, Huh-7.5.1; supernatant after 24 hours stimulation; naringenin 200 μM, brefeldin A 2.5 μg/ml. Here is the method:
The infectivity of the secreted HCV particles was measured as previously described (8). Naïve Huh7.5.1 cells were grown to 80% confluence and exposed to cell culture supernatants diluted 10-fold in culture media. Following 1 hour incubation at 37° C., the media was replaced, and the cells were cultured for 3 additional days. Levels of HCV infection were determined by immunofluorescence staining for HCV core protein. The viral titer is expressed as focus forming units per milliliter of supernatant (ffu/ml).

The test system of the next data set is ApoB. As to the kind of experiment: ApoB secretion by primary human hepatocytes (human ApoB ELISA). Type of data set: cell-based. As to conditions: 200 μM naringenin, 24 hours. The method, then: The Huh-7.5.1 human hepatoma cell line and a plasmid containing the JFH-1 genome were kindly provided by Dr. Chisari (Scripps Research Institute, CA) and Dr. Wakita (National Institute of Infectious Diseases, Tokyo) respectively. Huh-7.5.1 cells were cultured in DMEM medium supplemented with 10% FBS, 200 units/ml penicillin and […] streptomycin in a 5% CO2-humidified incubator at 37° C. In vitro transcribed genomic JFH-1 RNA was delivered to cells by liposome-mediated transfection as described by Zhong et al. (2005)(8). Infected Huh-7.5.1 cells were passaged every 3 days and used at passage <15. The presence of HCV in these cells and corresponding supernatants were determined by quantitative Polymerase Chain Reaction (qPCR) and immunofluorescence staining. Primary human hepatocytes were purchased from BD Biosciences (San Jose, Calif.) cultured on a collagen-coated 12 well plate in C+H culture media composed of DMEM supplemented with 10% heat-inactivated FBS, 200 U/mL penicillin/streptomycin, 7.5 μg/mL hydrocortisone, 20 ng/mL EGF, 14 ng/mL glucagons and 0.5 U/mL insulin. […]
Huh-7.5.1 and primary human hepatocytes secreted ApoB was detected in the media using ALerCHEK, Inc (Portland, Me.) total human ApoB ELISA kit. […]
To assess the potential of naringenin-based treatment, we measured ApoB secretion in primary human hepatocytes following 24 hours stimulation with naringenin. […]

The subject of a further data set is actin. The data set is described as follows: Actin mRNA level by qPCR in infected Huh7.5.1 cells. Type of data set: cell-based, human. As to conditions: naringenin 24 hours. The method, then: Virus samples collected in each experiment were filtered with a 0.45 μm filter and a volume of 100 μL for each sample was heated at 95° C. for 45 min. The reverse transcription reaction step was performed on a Mastercycler epgrdientS (Eppendorf) instrument using Omniscript and Sensiscript RT Kits (Qiagen). Real time PCR was performed on a Light Cycler LC-24 (Idaho Technology), using SuperScript™ III Platinum® CellsDirect Two-Step qRT-PCR Kits (Invitrogen) for quantitative PCR. For reverse transcription step, 2 μL of sample without RNA extraction were used. For real time PCR, 1 μL of the reverse transcription reactions was used. All reactions were performed according to the manufacturer's instructions using the primers detailed in Table 1.
(In general: In qPCR the cycle at which signal appears reflects the starting amount.)

A further data set relates to Caco-2 cell monolayer. As to the kind of experiment: Transport across Caco-2 cell monolayer (apical to basolateral). The format is in vitro ADME. As to conditions: human, Caco-2, 2 h, pH 7.35. Here is the method: The Caco-2 cell line is an immortalized line of human epithelial colorectal adenocarcinoma cells, which is widely used by the pharmaceutical industry to predict the absorption rate of candidate drug compounds across the intestinal epithelial cell barrier. Caco-2 cells were grown and allowed to form confluent monolayers on transwell filters for 21 days as previously described^39. In detail, Caco-2, human epithelial colorectal adenocarcinoma cells were cultured in tissue culture flasks (Becton Dickinson and Co., Lincoln Park, N.J.). The growth medium was Dulbecco's modified Eagle's medium supplemented with 10% fetal bovine serum, 1% nonessential amino acids, and 4 mM glutamine without antibiotics. The monolayer cultures were grown in a CO2 incubator (5% CO2) at 37° C. The cells were harvested with 0.25% trypsin and 0.2% EDTA (0.5 to 1 min at 37° C.), resuspended, and seeded into a new flask. Cells between 30 to 53 passages were used.
For the transport studies, Caco-2 cells were seeded on Transwell (0.4-μm pore size, 1-cm^2 growth area; Corning Costar Co.) at a cell density of 1×10^5 cells/filter. Cell growth and maintenance was kept as previously described (98). […] The concentrations of Naringenin or HPbCD-Neringenin were determined as described and plotted as a concentration on the basolateral side vs. time. […]

`O=C1C[C@@H](c2ccc(O)cc2)Oc2cc(O)cc(O)c21` [naringenin] displayed an inhibition at 200 µM in data set [1] of 79%. The “decrease in ApoB secretion” value in the data set on ApoB is 60%±7%. In addition, in the data set with actin, the “actin mRNA level” value is given as “remained unchanged”. The “maximal naringenin concentration in basal chamber” value in the data set on Caco-2 cell monolayer is 0.05 mM.

The values above are taken from patent US20160228575A1, “NARINGENIN COMPLEXES AND METHODS OF USE THEREOF” (THE GENERAL HOSPITAL CORPORATION, priority 2008, published 2016).
